Results published in paper PMC3429506, “Screening for Novel LRRK2 Inhibitors Using a High-Throughput TR-FRET Cellular Assay for LRRK2 Ser935 Phosphorylation” (PLoS ONE, 2012).

Experiments:
LRRK2 G2019S [1] = biological target: T1, LRRK2 G2019S (Homo sapiens, UniProt Q5S007, G2019S); assay: In vitro biochemical LRRK2 TR-FRET activity assay
Method: The Biochemical LRRK2 TR-FRET activity assay was performed according to the manufacture recommended assay protocol (Life Technologies). […] After incubation at room temperature for 1 hour, the kinase reactions were stopped by addition of 10 µL of 20 mM EDTA and 4 nM Tb-anti-pERM (pLRRKtide) antibody in TR-FRET dilution buffer (Life Technologies). After a 30 minute incubation at room temperature, TR-FRET measurements were obtained on a BMG PHERAstar plate reader using LanthaScreen® filters and settings. A 16 point, 2-fold dilution series of each compound was tested in triplicate at each concentration and assays were also performed in triplicate.

in vitro = details: human
LRRK2 wild-type [2] = biological target: T2, LRRK2 wild-type (Homo sapiens, UniProt Q5S007); assay: TR-FRET cellular assay for LRRK2 Ser935 phosphorylation, U-2 OS cells, BacMam LRRK2-GFP wild-type; assay type: cell-based; design: This high-throughput assay utilizes cells expressing full-length human LRRK2 with a C-terminal GFP tag (LRRK2-GFP); host or cells: U-2 OS cells transduced with BacMam; details: WT, +/- SD, three independent experiments, * = partial inhibition, read-out: IC50, TR-FRET cell-based assay for Ser935 phosphorylation of LRRK2
T2 sequence (Q5S007 whole entry): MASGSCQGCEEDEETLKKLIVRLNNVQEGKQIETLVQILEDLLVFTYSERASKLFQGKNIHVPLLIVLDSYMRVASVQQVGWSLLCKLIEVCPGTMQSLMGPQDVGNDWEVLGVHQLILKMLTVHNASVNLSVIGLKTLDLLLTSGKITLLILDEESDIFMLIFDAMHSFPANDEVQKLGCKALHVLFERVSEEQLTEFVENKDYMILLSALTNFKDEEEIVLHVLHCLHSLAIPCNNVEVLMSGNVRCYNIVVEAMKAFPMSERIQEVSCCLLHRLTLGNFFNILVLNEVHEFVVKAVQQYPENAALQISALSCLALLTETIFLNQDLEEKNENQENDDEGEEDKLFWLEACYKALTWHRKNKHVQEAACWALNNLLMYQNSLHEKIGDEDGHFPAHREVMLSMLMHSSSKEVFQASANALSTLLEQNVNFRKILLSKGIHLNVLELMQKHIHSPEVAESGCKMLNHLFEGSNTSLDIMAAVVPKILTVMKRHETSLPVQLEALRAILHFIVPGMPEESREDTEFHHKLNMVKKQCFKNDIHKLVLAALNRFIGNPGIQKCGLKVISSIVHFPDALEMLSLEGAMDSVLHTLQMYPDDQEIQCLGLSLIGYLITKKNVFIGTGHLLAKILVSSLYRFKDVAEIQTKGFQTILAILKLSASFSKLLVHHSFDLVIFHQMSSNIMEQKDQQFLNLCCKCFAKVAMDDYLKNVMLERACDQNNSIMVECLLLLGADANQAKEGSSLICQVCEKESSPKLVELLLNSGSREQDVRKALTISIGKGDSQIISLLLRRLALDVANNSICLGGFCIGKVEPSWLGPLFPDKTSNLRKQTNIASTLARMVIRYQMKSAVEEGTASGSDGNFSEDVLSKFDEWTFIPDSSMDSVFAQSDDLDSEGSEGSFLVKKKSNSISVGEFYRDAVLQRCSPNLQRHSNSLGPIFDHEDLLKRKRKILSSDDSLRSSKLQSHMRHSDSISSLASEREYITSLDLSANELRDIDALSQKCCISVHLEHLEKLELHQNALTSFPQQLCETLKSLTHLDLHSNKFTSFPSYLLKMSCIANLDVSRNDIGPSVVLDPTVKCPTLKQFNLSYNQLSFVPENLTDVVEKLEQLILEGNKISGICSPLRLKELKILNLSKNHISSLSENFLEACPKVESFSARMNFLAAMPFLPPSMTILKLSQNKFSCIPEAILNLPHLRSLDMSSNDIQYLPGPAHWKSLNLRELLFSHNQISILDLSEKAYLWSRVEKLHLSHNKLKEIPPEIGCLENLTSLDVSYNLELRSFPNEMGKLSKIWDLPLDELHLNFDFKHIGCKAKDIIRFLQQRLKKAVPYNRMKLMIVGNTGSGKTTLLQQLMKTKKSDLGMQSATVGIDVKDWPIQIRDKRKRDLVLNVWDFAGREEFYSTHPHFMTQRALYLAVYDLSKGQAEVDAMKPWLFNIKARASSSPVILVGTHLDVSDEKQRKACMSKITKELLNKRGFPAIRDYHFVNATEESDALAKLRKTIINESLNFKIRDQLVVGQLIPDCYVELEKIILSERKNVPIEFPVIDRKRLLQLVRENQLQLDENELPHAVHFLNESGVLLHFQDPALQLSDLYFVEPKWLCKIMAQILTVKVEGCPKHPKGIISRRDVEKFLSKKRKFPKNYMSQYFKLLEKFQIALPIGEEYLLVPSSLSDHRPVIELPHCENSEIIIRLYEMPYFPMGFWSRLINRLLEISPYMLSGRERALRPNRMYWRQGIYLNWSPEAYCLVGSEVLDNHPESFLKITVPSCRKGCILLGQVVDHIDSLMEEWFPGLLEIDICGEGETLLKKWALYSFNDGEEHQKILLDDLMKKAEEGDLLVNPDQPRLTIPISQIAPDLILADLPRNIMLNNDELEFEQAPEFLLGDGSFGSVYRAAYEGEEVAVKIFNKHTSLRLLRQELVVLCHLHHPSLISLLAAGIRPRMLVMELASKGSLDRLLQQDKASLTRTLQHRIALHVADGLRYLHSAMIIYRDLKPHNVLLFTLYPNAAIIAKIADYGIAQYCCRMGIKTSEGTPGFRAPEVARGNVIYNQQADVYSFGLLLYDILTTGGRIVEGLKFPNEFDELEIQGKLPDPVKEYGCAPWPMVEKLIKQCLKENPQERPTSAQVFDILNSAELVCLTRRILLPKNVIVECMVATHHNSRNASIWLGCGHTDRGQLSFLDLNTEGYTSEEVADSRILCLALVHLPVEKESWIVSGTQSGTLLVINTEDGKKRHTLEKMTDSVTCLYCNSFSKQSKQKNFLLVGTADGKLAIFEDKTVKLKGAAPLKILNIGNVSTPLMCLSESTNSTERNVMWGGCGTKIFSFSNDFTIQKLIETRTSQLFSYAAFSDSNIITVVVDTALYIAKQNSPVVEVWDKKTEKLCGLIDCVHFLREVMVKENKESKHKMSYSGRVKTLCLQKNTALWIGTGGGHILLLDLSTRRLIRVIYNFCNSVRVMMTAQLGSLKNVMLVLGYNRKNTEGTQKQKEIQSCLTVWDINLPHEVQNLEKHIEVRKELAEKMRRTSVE
Method: (§1) U-2 OS cells are maintained in growth medium (McCoy’s 5A supplemented with 10% dialyzed FBS (dFBS), 10 mM HEPES, 0.1 mM NEAA, 1 mM Sodium Pyruvate, and 100 U/mL Penicillin/100 µg/mL Streptomycin). HEK293T cells are maintained in DMEM with 10% dFBS, 10 mM HEPES, 0.1 mM NEAA and 100 U/mL Penicillin/100 µg/mL Streptomycin. SH-SY5Y cells are maintained in DMEM/F-12 medium supplemented with 10% dFBS and 100 U/mL Penicillin/100 µg/mL Streptomycin. […] GIBCO® human neural stem cells (hNSCs) were propagated as an adherent culture in StemPro® NSC SFM according to the manufacturer’s recommended protocol (Life Technologies). For BacMam transduction of U-2 OS and HEK293T, cells were harvested, mixed with various amounts of BacMam LRRK2-GFP reagent (v/v) and plated onto 6-well plates. […] Cells were assayed in 384-well format (∼20,000 cells/well) 48 hours post-transduction as above.
(§2) Transduced cells in the 384-well assay plate were incubated with indicated inhibitors (5X, 5 µL/well) for 60 to 90 minutes. During this time, 6 X lysis buffer (Life Technologies) was supplemented with 30 nM Tb-labeled anti-LRRK2 pSer935 antibody and both protease and phosphatase inhibitor cocktails (Sigma). The complete 6 X lysis buffer was added to each well (5 µL/well) and the plates were incubated at room temperature in the dark for 2 hours. […] A sigmoidal dose-response equation with varying slope was used to fit the data and generate IC50 values. Z′-factor values were calculated as: Z′-factor = 1 - [(3 × stdevno virus +3 × stdevmaxvirus)/(avgmaxvirus – avgno-virus)]. The IC50 values reported in Table 1 are the averaged numbers from three independent experiments.

LRRK2 wild-type [3] = biological target: T2, LRRK2 wild-type; assay: TR-FRET cellular assay for LRRK2 Ser935 phosphorylation, SH-SY5Y cells, BacMam LRRK2-GFP wild-type; assay type: cell-based; design: This high-throughput assay utilizes cells expressing full-length human LRRK2 with a C-terminal GFP tag (LRRK2-GFP); host or cells: SH-SY5Y cells transduced with BacMam; details: WT, +/- SD, three independent experiments, * = partial inhibition, read-out: IC50, TR-FRET cell-based assay for Ser935 phosphorylation of LRRK2
Method: as §1, §2

LRRK2 G2019S [4] = biological target: T1, LRRK2 G2019S; assay: TR-FRET cellular assay for LRRK2 Ser935 phosphorylation, SH-SY5Y cells, BacMam LRRK2-GFP G2019S (incl. Tocriscreen Mini library screen and follow-up); assay type: cell-based; design: This high-throughput assay utilizes cells expressing full-length human LRRK2 with a C-terminal GFP tag (LRRK2-GFP); host or cells: SH-SY5Y cells transduced with BacMam; details: for IC50: three independent experiments
Method: as §1, §2
40 nL of 10 mM Tocris library compounds in DMSO were dispensed into each well of the assay plate by the ECHO system. Equal volumes of DMSO were dispensed into the control wells. Cells were incubated with compounds for 90 to 120 min prior to cell lysis and detection as described above. The percent inhibition is calculated as: [(average emission ratios of DMSO control wells – average emission ratios of compound wells)/(average emission ratios of DMSO control wells – average emission ratios of LRRK2-IN-1 treated wells)] * 100. For the dose-response follow-up studies, fresh compound DMSO stock solutions were prepared from powder. […] Z′-factor value was calculated as: Z′-factor = 1 - [(3 × stdevLRRK2-IN-1+3 × stdevDMSO)/(avgDMSO – avgLRRK2-IN-1)]. The IC50 values reported in Table 2 are the averaged numbers from three independent experiments for both cellular and biochemical TR-FRET assays and one representative result of two independent experiments for the cytotoxicity assay.

LRRK2 wild-type [5] = biological target: T2, LRRK2 wild-type; assay: TR-FRET cellular assay for LRRK2 Ser935 phosphorylation, HEK293T cells, BacMam LRRK2-GFP wild-type; design: This high-throughput assay utilizes cells expressing full-length human LRRK2 with a C-terminal GFP tag (LRRK2-GFP); host or cells: HEK293T cells transduced with BacMam; details: WT, +/- SD, three independent experiments, * = partial inhibition, read-out: IC50, TR-FRET cell-based assay for Ser935 phosphorylation of LRRK2
Method: as §1, §2

LRRK2 G2019S [6] = biological target: T1, LRRK2 G2019S; assay: TR-FRET cellular assay for LRRK2 Ser935 phosphorylation, HEK293T cells, BacMam LRRK2-GFP G2019S; design: This high-throughput assay utilizes cells expressing full-length human LRRK2 with a C-terminal GFP tag (LRRK2-GFP); host or cells: HEK293T cells transduced with BacMam; details: +/- SD, three independent experiments, * = partial inhibition, read-out: IC50, TR-FRET cell-based assay for Ser935 phosphorylation of LRRK2
Method: as §1, §2

LRRK2 G2019S [7] = biological target: T1, LRRK2 G2019S; assay: TR-FRET cellular assay for LRRK2 Ser935 phosphorylation, U-2 OS cells, BacMam LRRK2-GFP G2019S; assay type: cell-based; design: This high-throughput assay utilizes cells expressing full-length human LRRK2 with a C-terminal GFP tag (LRRK2-GFP); host or cells: U-2 OS, SH-SY5Y, HEK293T cells or human neural stem cells transduced with BacMam; details: G2019S, +/- SD, three independent experiments, * = partial inhibition, read-out: IC50, TR-FRET cell-based assay for Ser935 phosphorylation of LRRK2
Method: as §1, §2

T1 sequence (Q5S007 whole entry G2019S): as the sequence (Q5S007 whole entry) above, with G2019S counted along it

O=Nc1c(-c2c(O)[nH]c3ccccc23)[nH]c2ccccc12 [Indirubin-3-monoxime, Indirubin-3′-monoxime]
IC50 (LRRK2 G2019S [1]; LRRK2 G2019S, ATP 134 µM (Km,app), LRRKtide substrate, three independent experiments, read-out: Biochemical LRRK2 assay IC50 +/- SD): > 10 µM | effect on LRRK2 activity in vitro (LRRK2 G2019S [1]; result in words): did not repress LRRK2 activity in vitro | IC50 (in vitro): > 20 µM | IC50 (LRRK2 wild-type [2]): 3.78 µM | IC50 (LRRK2 wild-type [3]): > 10 µM | IC50 (LRRK2 G2019S [4]; SH-SY5Y, G2019S, +/- SD, * = partial inhibition, read-out: IC50, TR-FRET cell-based assay for Ser935 phosphorylation of LRRK2): 6.15 µM | inhibition at 20 µM (LRRK2 G2019S [4]; SH-SY5Y, Tocriscreen Mini library screen, 20 µM, SH-SY5Y G2019S, relative to LRRK2-IN-1 control, read-out: %Inhibition Initial screen): 63.5% | Cellular TR-FRET Assay Max % Inhibition (LRRK2 G2019S [4]; dose-response follow-up, SH-SY5Y G2019S, 90 min): 64% | IC50 (LRRK2 G2019S [4]; dose-response follow-up, SH-SY5Y G2019S, read-out: Cellular TR-FRET Assay IC50 +/-SD): 4.4 µM | IC50 (LRRK2 wild-type [5]): 3.68 µM | IC50 (LRRK2 G2019S [6]): 2.78 µM | IC50 (LRRK2 G2019S [7]): 1.93 µM
